Measurements taken from PMC2810227, “3-O-Methylfunicone, a Selective Inhibitor of Mammalian Y-Family DNA Polymerases from an Australian Sea Salt Fungal Strain” (Marine Drugs, 2009).

Experiments:
Assay type in all cases: biochemical
human pol η = molecular target: T1, human pol η (Homo sapiens, UniProt Q9Y253); assay: DNA polymerase assay, pol η
T1 construct: A truncated form of human pol η (residues 1–511); His6 (C); made in house; host or cells: E. coli
Description: (§1) Pol α was purified from calf thymus by immuno-affinity column chromatography, as described by Tamai et al.. Recombinant rat pol β was purified from E. coli JMpβ5, as described by Date et al.. The human pol γ catalytic gene was cloned into pFastBac. Histidine-tagged enzyme was expressed using the BAC-TO-BAC HT Baculovirus Expression System according to the supplier’s manual (Life Technologies, MD, USA) and purified using ProBoundresin (Invitrogen Japan, Tokyo, Japan). Human pols δ and ɛ were purified by nuclear fractionation of human peripheral blood cancer cells (Molt-4) using the second subunit of pols δ and ɛ-conjugated affinity column chromatography, respectively. A truncated form of human pol η (residues 1–511) tagged with His6 at its C-terminal was expressed in E. coli cells and purified as described by Kusumoto et al.. A recombinant mouse pol ι tagged with His6 at its C-terminal was expressed and purified by Ni-NTA column chromatography as described elsewhere (Masutani et al., in preparation). […]
(§2) The compounds were dissolved in distilled dimethyl sulfoxide (DMSO) at various concentrations and sonicated for 30 sec. […] Activity without the inhibitor was considered 100%, and the remaining activity at each concentration of the inhibitor was determined relative to this value. […]

human pol δ = molecular target: T2, human pol δ (Homo sapiens, UniProt P28340); assay: DNA polymerase assay, pol δ; settings: 100 μM
T2 construct: purified by nuclear fractionation of human peripheral blood cancer cells (Molt-4); endogenous in cells; host or cells: Molt-4
T2 sequence (P28340 whole entry): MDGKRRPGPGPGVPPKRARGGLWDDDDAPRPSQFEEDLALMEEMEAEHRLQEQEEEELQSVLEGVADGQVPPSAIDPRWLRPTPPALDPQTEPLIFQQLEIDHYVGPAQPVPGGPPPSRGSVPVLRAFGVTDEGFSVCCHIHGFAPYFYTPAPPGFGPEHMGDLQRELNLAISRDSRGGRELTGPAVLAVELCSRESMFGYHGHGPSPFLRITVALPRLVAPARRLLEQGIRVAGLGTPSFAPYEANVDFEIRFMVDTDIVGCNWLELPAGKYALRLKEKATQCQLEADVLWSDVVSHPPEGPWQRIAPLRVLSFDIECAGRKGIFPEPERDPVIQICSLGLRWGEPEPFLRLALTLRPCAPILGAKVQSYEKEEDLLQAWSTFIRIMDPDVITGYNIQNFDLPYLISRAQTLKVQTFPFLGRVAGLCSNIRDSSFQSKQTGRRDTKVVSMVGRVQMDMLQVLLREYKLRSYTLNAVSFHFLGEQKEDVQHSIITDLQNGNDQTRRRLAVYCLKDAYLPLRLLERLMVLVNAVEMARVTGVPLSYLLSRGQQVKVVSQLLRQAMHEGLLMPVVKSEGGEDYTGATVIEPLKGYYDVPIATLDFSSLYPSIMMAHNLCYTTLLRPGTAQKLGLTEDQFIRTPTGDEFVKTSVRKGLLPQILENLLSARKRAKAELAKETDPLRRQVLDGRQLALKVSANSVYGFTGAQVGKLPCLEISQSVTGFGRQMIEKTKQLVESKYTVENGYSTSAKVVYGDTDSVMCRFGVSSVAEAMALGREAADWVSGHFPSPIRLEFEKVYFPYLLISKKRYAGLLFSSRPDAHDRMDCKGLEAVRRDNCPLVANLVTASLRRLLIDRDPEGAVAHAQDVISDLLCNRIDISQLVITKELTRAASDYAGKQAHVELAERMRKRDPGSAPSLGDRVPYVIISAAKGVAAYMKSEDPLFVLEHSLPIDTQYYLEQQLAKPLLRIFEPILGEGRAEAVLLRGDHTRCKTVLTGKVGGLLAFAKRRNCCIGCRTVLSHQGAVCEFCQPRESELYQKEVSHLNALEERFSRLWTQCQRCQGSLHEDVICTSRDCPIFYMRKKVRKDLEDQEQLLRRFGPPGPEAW
Description: as §1, §2

T4 pol = molecular target: T3, T4 pol (Enterobacteria phage T4, UniProt P04415); assay: DNA polymerase assay, T4 pol; settings: 100 μM
T3 construct: purchased Takara Bio (Tokyo, Japan)
T3 sequence (P04415 whole entry): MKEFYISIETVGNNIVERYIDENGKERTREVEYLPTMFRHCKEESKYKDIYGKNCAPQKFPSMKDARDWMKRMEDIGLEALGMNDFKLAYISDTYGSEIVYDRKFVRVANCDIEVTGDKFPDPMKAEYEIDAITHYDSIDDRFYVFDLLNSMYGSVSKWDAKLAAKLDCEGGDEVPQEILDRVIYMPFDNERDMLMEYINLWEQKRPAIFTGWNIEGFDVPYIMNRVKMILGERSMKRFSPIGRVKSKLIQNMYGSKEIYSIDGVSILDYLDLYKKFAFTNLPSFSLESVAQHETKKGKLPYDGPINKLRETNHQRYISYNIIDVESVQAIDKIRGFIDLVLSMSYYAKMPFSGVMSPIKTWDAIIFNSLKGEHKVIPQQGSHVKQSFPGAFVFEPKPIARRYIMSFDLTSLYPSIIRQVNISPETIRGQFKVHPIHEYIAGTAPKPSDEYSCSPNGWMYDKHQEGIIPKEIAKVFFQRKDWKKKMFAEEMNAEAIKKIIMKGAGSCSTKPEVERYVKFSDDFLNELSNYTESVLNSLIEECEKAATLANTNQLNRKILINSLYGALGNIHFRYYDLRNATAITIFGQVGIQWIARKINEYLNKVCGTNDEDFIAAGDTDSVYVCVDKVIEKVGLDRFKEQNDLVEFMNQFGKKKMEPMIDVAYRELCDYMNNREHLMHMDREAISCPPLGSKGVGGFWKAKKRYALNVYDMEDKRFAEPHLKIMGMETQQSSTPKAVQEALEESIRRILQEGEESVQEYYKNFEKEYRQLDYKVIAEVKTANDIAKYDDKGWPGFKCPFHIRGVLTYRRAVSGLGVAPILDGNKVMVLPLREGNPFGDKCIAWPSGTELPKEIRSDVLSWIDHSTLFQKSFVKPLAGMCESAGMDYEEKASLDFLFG
Description: as §1, §2

Taq pol = molecular target: T4, Taq pol (Thermus aquaticus, UniProt P19821); assay: DNA polymerase assay, Taq pol; settings: 100 μM; 74 °C
T4 construct: purchased Takara Bio (Tokyo, Japan)
Description: as §1, §2

[1] = molecular target: mouse inosine 5′-monophosphate (IMP) dehydrogenase (type II) (Mus musculus, UniProt P24547); assay: IMP dehydrogenase assay; settings: 100 μM
Sequence of mouse inosine 5′-monophosphate (IMP) dehydrogenase (type II) (P24547 whole entry): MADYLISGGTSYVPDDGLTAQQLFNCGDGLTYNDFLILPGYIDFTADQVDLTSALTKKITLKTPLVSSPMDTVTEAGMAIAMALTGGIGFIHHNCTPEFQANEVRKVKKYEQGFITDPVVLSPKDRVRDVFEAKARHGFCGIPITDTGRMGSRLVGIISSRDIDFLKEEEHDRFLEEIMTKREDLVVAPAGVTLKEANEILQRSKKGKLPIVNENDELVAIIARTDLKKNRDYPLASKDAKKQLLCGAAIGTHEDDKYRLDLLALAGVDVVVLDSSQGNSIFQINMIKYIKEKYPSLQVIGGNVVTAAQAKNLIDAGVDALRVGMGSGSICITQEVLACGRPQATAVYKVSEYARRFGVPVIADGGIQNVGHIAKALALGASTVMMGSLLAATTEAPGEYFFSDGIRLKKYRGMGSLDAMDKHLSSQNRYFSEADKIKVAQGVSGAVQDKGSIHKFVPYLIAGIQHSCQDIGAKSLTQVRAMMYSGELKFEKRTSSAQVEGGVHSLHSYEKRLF
Protocol: The activities of calf primase of pol α, human telomerase, T7 RNA polymerase, mouse IMP dehydrogenase, human DNA topoisomerases I and II, T4 polynucleotide kinase and bovine DNase I were measured in standard assays according to the manufacturer’s specifications, as described by Tamiya-Koizumi et al., Oda et al., Nakayama et al., Mizushina et al., Ishimaru et al., Soltis et al. and Lu et al., respectively.

T1 sequence (Q9Y253 1-511): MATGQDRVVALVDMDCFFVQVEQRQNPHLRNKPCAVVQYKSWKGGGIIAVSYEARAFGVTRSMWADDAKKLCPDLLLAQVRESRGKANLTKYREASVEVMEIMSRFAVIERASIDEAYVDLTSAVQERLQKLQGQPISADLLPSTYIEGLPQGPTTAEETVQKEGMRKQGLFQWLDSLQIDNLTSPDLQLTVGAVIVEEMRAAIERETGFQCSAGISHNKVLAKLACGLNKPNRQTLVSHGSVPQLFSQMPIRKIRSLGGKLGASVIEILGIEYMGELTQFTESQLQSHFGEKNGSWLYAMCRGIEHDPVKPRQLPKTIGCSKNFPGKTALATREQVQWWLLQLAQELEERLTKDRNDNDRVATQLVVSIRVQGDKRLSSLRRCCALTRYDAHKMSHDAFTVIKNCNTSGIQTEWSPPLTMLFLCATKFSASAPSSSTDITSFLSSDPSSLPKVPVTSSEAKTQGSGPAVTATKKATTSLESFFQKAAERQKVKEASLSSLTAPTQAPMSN

## C/C=C/c1occ(C(=O)c2c(OC)cc(OC)cc2C(=O)OC)c(=O)c1OC [compound 1, 3-O-methylfunicone]
Human pol η; 100 μM
  effect on pol η activity: selectively inhibit
Human pol η; poly(dA)/oligo(dT)18 and dTTP, 0.05 units enzyme, read-out: 50% inhibition of pol η (IC50)
  IC50: 50.1 µM
Human pol δ
  effect on pol δ activity: hardly influenced
T4 pol
  effect on T4 pol activity: no effect
Taq pol
  effect on Taq pol activity: no effect
[1]
  effect on mouse IMP dehydrogenase (type II) activity: did not influence
